Experimental data: patent publication US20240009223A1, “6-THIO-2'-DEOXYGUANOSINE (6-THIO-DG) RESULTS IN TELOMERASE DEPENDENT TELOMERE DYSFUNCTION AND CELL DEATH IN VARIOUS MODELS OF THERAPY-RESISTANT CANCER CELLS” (The Board of Regents of The University of Texas System, priority 2016, published 2024)

What was measured:
WM4265-2 xenografts = test: WM4265-2 xenograft tumor volume; assay type: in vivo, human
Experimental: Melanoma Xenotransplantation and In vivo Studies. 100,000 melanoma cells were harvested from cell culture and re-suspended in culture medium and Matrigel at a 1:1 ratio. Cells were subcutaneously injected into mice, which were treated with indicated inhibitors when the tumor volume reached 100 mm^3. Mice were sacrificed at the end time point and solid tumors were collected. All animal experiments were performed in accordance with Wistar IACUC protocol 112330 in NOD.[…] 1 Wjl/SzJ mice.

[1] = system: mTOR-S6 signaling axis in 13-456-3-3 xenografts; test: RPPA of 13-456-3-3 xenografts; assay type: in vivo, human
Source text: Analysis of Gene Expression Microarray Data and Reverse Phase Protein Array (RPPA) Data. The raw data of gene expression microarrays generated from Illumina Chips were normalized, background-corrected and summarized using the R package “lumi”. […] To reduce false positives, the unexpressed probes were removed. The R package “limma” was employed for gene differential expression analysis, followed by multiple test correction by the Benjamini and Hochberg procedure. […] The inventors also conducted GSEA as previously reported. For GSEA, they analyzed gene sets obtained from the Molecular Signatures Database (world-wide-web at broadinstitute.org/gsea/msigdb/). The same differential expression analysis method was applied to RPPA data.

For `Nc1nc2c(ncn2[C@H]2C[C@H](O)[C@@H](CO)O2)c(=S)[nH]1` [6-thio-dG, 6-thio-2′-deoxyguanosine], the “anti-tumor activity in xenografts” value (WM4265-2 xenografts) was “anti-tumor activity” and the “mTOR-S6 signaling axis (RPPA)” value [1] was “down-regulated”.
